The text below walks through data of patent US20020055094A1 (priority 1996, published 2002).

Common to all, as to assay type: binding
The subject of one assay is influenza A NWS/G70C.
The subject of assay [1] is NWS/G70C influenza A virus.
For assay [2], the system named is NWS/G70C influenza A virus. This is another data set of the same source.

Bounds are passed on as bounds.

As for “5-acetamido-7-{6′-[6″-(6″′-biotinylaminocaproyl) -tri-amingcaroyl]-aminohexyl}-carbamoyloxy-4-guanidino -2,3,4,5-tetradeoxy-D-glycero-D-gaacto-non-2-enopyranosonic acid [Compound No. 26]”, in the assay on influenza A NWS/G70C, the “compound concentration giving the best results” value was determined as 0.1 µM and the “virus amount readily detected” value is given as 2.5×10^5 pfu/well.

Consider `CC(=O)N[C@H]1[C@H]([C@H](OC(=O)NCCCCCCNC(=O)NCCCCCCN)[C@H](O)CO)OC(C(=O)O)=C[C@@H]1NC(=N)N` [Compound No. 8, 5-acetamido-7-[6′-(6″-aminohexylureido)-hexyl]-carbamoyloxy-4-guanidino-2,3,4,5-tetradeoxy-D-glycero-D-galacto-non-2-enopyranosonic acid], for which the “signal in direct detection” value in assay [1] is given as “no signal at any concentration of virus”.

For the molecule `CC(=O)N[C@H]1[C@H]([C@H](OC(=O)NCCCCCCNC(=O)CNC(=O)CNC(=O)CNC(=O)CCCC[C@@H]2SC[C@@H]3NC(=O)N[C@@H]32)[C@H](O)CO)OC(C(=O)O)=C[C@@H]1NC(=N)N` [Compound No. 21, 5-acetamido-7-(6′-biotinylamino-tricrlycinamido-hexy) -carbamoyloxy-4-guanidino-2,3,4,5-tetradeoxy-D-glycerQ-D-galacto-non-2-enopyranosonic acid], in assay [1], the minimum virus detectable entry was “about 10^5 virus particles per well”. Moreover, in assay [2], the “compound concentration giving the best result” value is 0.01 µM and the “virus detection limit of captured complex” value is ≤ 0.625×10^5 pfu.
